Source: patent US20250035634A1, “A METHOD FOR DETECTING CLUSTERING OF RAS PROTEIN” (Nanyang Technological University, priority 2021, published 2025)

What was measured:
[1] = target: T1, HRasG12V (Homo sapiens, UniProt P01112, G12V); assay: nanobar-guided HRasG12V clustering (Enrichment Index) in U2OS cells; format: cell-based
T1 construct: through full-length KRasG12V, HRasG12V and the truncated Ras isoforms tK-Ras and tH-Ras; expressed in transfected cells; host or cells: U2OS
Source text: Arrays of nanostructures on SiO2 surface of bar shape are fabricated with two curved ends and flat sidewalls using electron beam lithography (EBL). […] To conduct EBL, the chips are spin-coated with an electron-sensitive layer, 300 nm of positive electron-beam resist poly (methyl methacrylate) (PMMA) (MicroChem), followed by a conductive polymer layer of AR-PC 5090.02 (Allresist). Desired patterns are then written on the polymer through exposure to EBL (FEI Helios NanoLab), and developed in isopropanol:methylisobutylketone (IPA:MIBK)=3:1 solution. Subsequently, a 30-nm chromium (Cr) mask is deposited onto the surface via thermal evaporation (UNIVEX 250 Benchtop) and lift-off in acetone. […]
Cell imaging is performed with laser scanning confocal microscopy (Zeiss LSM 800 with Airyscan) and a Plan-Apochromat 100×/1.4 oil objective. EGFP is excited at 488 nm and detected at 490-570 nm. RFP is excited at 561 nm and detected at 570-645 nm. […] The images are conducted with a single snap shot for display of Ras variants and the quantification. […]
To quantify the nanobar-guided clustering of Ras variants, the fluorescence intensity ratio at the nanobar end to the flat sidewall (i.e. Enrichment Index, EI) is calculated. […] Next, the nanobars covered by the cell to be analyzed are identified by a custom-written MATLAB (MathWorks) code. […]

[2] = tested on: HCT-116 cells; conditions: 24 hrs, read-out: IC50, MTT assay growth inhibition; cited from earlier work
[3] = tested on: ASPC-1 cells; conditions: 24 hrs, read-out: IC50, MTT assay growth inhibition; cited from earlier work
[4] = target: T2, KRasG12V (Homo sapiens, UniProt P01116, G12V); assay: nanobar-guided KRasG12V clustering (Enrichment Index) in U2OS cells; format: cell-based; conditions: for Enrichment Index (EI) of KRasG12V: mean±s.e.m.
T2 construct: through full-length KRasG12V, HRasG12V and the truncated Ras isoforms tK-Ras and tH-Ras; expressed in transfected cells; host or cells: U2OS
Source text: Arrays of nanostructures on SiO2 surface of bar shape are fabricated with two curved ends and flat sidewalls using electron beam lithography (EBL). […] To conduct EBL, the chips are spin-coated with an electron-sensitive layer, 300 nm of positive electron-beam resist poly (methyl methacrylate) (PMMA) (MicroChem), followed by a conductive polymer layer of AR-PC 5090.02 (Allresist). Desired patterns are then written on the polymer through exposure to EBL (FEI Helios NanoLab), and developed in isopropanol:methylisobutylketone (IPA:MIBK)=3:1 solution. Subsequently, a 30-nm chromium (Cr) mask is deposited onto the surface via thermal evaporation (UNIVEX 250 Benchtop) and lift-off in acetone. Nanostructures are generated through reactive ion etching with the mixture of CF4 and CHF3 (Oxford Plasmalab 80). After fabrication, scanning electron microscopy (SEM) (FEI Helios NanoLab) imaging can be performed after 10-nm Cr coating to measure the dimensional properties of nanostructures (FIG. 1, top). Before use, the nanostructured-chip is cleaned by Chromium Etchant (Sigma-Aldrich) to remove the remaining metal layer.
To culture the cells onto the nanostructured chip, the chip is first cleaned by air plasma treatment (Harrick Plasma) and sterilized by UV radiation. Additional coating reagents like extracellular matrix (ECM) protein components (e.g., fibronectin or gelatin, Sigma-Aldrich) can be added to promote cell attachment. After coating, the cells are plated and maintained in DMEM (Gibco) supplemented with fetal bovine serum (FBS, Life Technologies) and Penicillin-Streptomycin (Life Technologies) in a standard incubator at 37° C. with 5% CO2.
The Ras proteins can be expressed transiently by transfecting the fluorescent protein-tagged Ras plasmid (e.g., EGFP-KRasG12V, EGFP, enhanced green fluorescent protein) into cells using the Lipofectamine (Life Technologies) protocol or electroporation (e.g., Neon Transfection System, Thermo Fisher). If necessary, the transfection parameters (e.g., the amount of the plasmid, starvation time and expression time) and electroporation parameters (e.g., pulse voltage, pulse width, pulse number) can be optimized to reach the expected transfection efficiency and expression level. FBS can be removed at the expression step from the culture medium to prevent Ras activation.
To evaluate the effect of a Ras inhibitor on disrupting the Ras clusters, a gradient concentration and several treatment durations can be selected to determine the effective window. A control group with no treatment should be conducted at the same time. Before and after treatment of the same batch of cells can also be compared.
Cell imaging is performed with laser scanning confocal microscopy (Zeiss LSM 800 with Airyscan) and a Plan-Apochromat 100×/1.4 oil objective. EGFP is excited at 488 nm and detected at 490-570 nm. RFP is excited at 561 nm and detected at 570-645 nm. Images were taken with a resolution of 512×512 pixels, 16-bit and 124 nm pixel size. A scanning speed of 20 s/image and an averaging mode of 4 times/line can be applied. During imaging, the cells are maintained in live cell imaging solution (Thermo Fisher) at 37° C. in an on-stage incubator. […] The images are conducted with a single snap shot for display of Ras variants and the quantification. For the imaging of co-expressed K-Ras variants and CRaf-RBD, z-stack images can be taken and averaged for display and the intensity profiles. The calculation of Pearson correlation coefficient is also based on single snap shot.
To quantify the nanobar-guided clustering of Ras variants, the fluorescence intensity ratio at the nanobar end to the flat sidewall (i.e. Enrichment Index, EI) is calculated. The background signals of each image are firstly subtracted by the rolling ball algorithm in ImageJ (radius=3 pixels for 250 nm diameter nanobars). Next, the nanobars covered by the cell to be analyzed are identified by a custom-written MATLAB (MathWorks) code. […]

[5] = tested on: Calu-1 cells; conditions: 24 hrs, read-out: IC50, MTT assay growth inhibition; cited from earlier work
[6] = target: T3, K-Ras (Homo sapiens, UniProt P01116); conditions: Hela cells, 4 hrs; read-out: IC50, NanoBit assay measuring K-Ras activation; cited from earlier work
T3 construct: host or cells: HeLa

COc1ccc([C@@]23Oc4cc(OC)cc(OC)c4[C@]2(O)[C@H](O)[C@H](C(=O)N(C)C)[C@H]3c2ccccc2)cc1 [rocaglamide]
Enrichment Index (EI) of HRasG12V ([1]; rocaglamide 100 nM, 4 hrs, U2OS cells, mean±s.e.m.): 1.87±0.029 | effect on bar-end accumulated clustering of HRasG12V ([1]; same drug treatment vs DMSO, U2OS cells on nanobars): no obvious changes | IC50 [2]: 9.47 nM | IC50 [3]: 10.2 nM | detection limit: concentration at which effect on KRasG12V clustering is detected ([4]; 1 hr treatment): 25 nM | IC50 ([4]; KRasG12V, 1 hr, one-phase decay fit of EI, read-out: IC50 of the nanobar assay, effect on K-Ras clustering): 18.4 nM | effect on bar-end accumulated clustering of KRasG12V ([4]; drug treatment vs DMSO, U2OS cells on nanobars): significant reduction | Enrichment Index (EI) of KRasG12V ([4]; rocaglamide 25 nM, 1 hr): 1.64±0.018 | detection time: treatment time giving significant reduction of KRasG12V clustering ([4]; rocaglamide 50 nM): 15 min | Enrichment Index (EI) of KRasG12V ([4]; rocaglamide 50 nM, 15 mins): 1.72±0.032 | Enrichment Index (EI) of KRasG12V ([4]; rocaglamide 50 nM, 1 hr): 1.55±0.021 | Enrichment Index (EI) of KRasG12V ([4]; rocaglamide 50 nM, 4 hrs): 1.64±0.024 | Enrichment Index (EI) of KRasG12V ([4]; rocaglamide 100 nM, 1 hr, U2OS cells): 1.58±0.027 | IC50 [5]: 11.9 nM | IC50 [6]: 24.8 nM
